Our source for the IC50 values is patent publication US20090247559A1 (Exelixis, Inc., priority 2007, published 2009).

Structures can show the parent of a compound that is named as a salt. Where two headings read alike, the source gives them in different places. Bounds are passed on as bounds.

For orientation: IC50 means the concentration that inhibits the measured activity by half.

For one assay, the target named is CDC7 (Homo sapiens, UniProt O00311). The assay is described as follows: CDC7 inhibition, biochemical chemiluminescence assay (Kinase Glo, IC50 determination). The essentials:
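CDC7 enzyme preincubated with compound 10 min at ambient temperature, then ATP mix in Tris Base added; reaction 90 min at 24-27 °C. Remaining ATP quantified by Kinase Glo luminescence to give IC50.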
For orientation: Kinase-Glo reads ATP consumption through a luciferase reaction.

For the next assay, the target named is CK2 (Homo sapiens, UniProt P68400). The experiment in a line: CK2 inhibition, biochemical chemiluminescence holoenzyme assay (Kinase Glo, IC50 determination). To be noted: Table 1 activity class; symbol given only if active; read-out: CK2 IC50 (Activity C). In short, it runs like this:
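Holoenzyme CK2 assay; compounds pre-incubated with substrate and enzyme, then reacted 150 min at 24-27° C. Remaining ATP measured as luminescence with Kinase Glo, and IC50 derived from the signal.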

Assay [1] concerns the target PIM (PIM-1, PIM-2, and/or PIM-3). The assay is described as follows: PIM-1, PIM-2 and PIM-3 inhibition, biochemical chemiluminescence assays (Kinase Glo, IC50 determination). The note with it: Table 1 activity class; PIM refers to PIM-1, PIM-2, and/or PIM-3; read-out: PIM IC50 (Activity B).
Where [2] appears, read: Table 1 activity class, symbol given only if active, read-out: CDC7 IC50 (Activity A).
Setting [3] is: compounds in Table 1, read-out: CDC7 IC50 value.
Where [4] appears, read: CDC7 IC50 (Activity A), Table 1 activity class, symbol given only if active.
Setting [5] is: CDC7 IC50 value, compounds in Table 1.

CK2, sequence (P68400 whole entry): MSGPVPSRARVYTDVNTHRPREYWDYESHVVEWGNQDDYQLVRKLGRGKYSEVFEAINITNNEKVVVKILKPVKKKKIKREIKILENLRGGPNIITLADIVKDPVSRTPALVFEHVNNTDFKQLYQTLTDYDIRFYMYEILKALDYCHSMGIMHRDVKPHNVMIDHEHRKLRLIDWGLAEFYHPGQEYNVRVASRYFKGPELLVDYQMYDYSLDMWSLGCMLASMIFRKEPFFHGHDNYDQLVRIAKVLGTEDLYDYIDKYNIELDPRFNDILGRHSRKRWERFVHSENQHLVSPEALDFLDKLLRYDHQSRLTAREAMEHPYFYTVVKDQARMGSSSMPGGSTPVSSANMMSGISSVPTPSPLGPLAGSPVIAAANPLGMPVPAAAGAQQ
CK2, sequence (P67870 whole entry partner): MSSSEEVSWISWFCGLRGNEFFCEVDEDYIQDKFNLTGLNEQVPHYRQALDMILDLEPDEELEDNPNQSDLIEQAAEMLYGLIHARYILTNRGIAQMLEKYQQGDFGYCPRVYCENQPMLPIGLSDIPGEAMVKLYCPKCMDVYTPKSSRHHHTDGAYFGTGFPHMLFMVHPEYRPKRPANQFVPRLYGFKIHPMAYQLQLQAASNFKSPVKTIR
CDC7, sequence (O00311 whole entry): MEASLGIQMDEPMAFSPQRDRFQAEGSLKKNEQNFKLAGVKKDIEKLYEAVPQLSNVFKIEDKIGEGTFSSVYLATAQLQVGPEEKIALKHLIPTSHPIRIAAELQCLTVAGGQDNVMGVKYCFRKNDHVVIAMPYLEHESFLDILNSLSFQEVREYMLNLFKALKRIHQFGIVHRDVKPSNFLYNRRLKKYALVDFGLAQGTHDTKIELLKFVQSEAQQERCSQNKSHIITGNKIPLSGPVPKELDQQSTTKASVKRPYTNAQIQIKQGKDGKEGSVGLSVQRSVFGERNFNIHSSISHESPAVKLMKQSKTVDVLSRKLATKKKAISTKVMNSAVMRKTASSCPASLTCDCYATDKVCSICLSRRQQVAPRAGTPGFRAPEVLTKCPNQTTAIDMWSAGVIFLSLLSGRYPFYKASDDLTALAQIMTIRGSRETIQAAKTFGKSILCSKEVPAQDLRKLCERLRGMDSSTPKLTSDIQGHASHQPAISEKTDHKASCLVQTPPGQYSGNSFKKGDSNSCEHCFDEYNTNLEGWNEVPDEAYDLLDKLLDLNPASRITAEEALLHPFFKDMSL
CDC7, sequence (Q9UBU7 whole entry partner): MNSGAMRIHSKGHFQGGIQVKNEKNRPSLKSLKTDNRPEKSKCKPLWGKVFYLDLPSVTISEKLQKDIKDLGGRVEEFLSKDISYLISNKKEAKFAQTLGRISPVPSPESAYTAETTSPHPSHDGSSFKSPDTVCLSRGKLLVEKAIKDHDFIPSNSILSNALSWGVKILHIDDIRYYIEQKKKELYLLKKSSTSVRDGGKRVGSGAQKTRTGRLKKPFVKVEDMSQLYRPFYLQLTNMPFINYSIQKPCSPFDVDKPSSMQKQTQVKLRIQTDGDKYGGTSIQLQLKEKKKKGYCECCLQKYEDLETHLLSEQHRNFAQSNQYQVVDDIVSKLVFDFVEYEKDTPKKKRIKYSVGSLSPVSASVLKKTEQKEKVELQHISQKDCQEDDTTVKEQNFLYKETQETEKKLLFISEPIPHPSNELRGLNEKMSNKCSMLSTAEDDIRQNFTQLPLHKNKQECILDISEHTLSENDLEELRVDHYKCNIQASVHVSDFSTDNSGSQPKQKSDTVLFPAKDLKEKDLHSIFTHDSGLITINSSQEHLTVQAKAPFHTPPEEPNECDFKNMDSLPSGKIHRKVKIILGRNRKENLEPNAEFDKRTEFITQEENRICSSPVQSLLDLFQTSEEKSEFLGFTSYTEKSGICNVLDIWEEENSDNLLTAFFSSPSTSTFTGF

For `O=c1[nH]c([C@@H]2CCN2)nc2c1oc1ccc(Br)cc12` [Compound 509, 2-[(2S)-azetidin-2-yl]-8-bromo[1]benzofuro[3,2-d]pyrimidin-4(3H)-one], the IC50 is below 10 µM at CDC7 (setting [2]), below 0.1 µM on CDC7 (setting [3]), below 10 µM at CK2 and below 10 µM in assay [1].
In the case of `O=c1[nH]c([C@@H]2Cc3ccccc3N2)nc2c1oc1ccc(Br)cc12` [Compound 510, 8-bromo-2-[(2S)-2,3-dihydro-1H-indol-2-yl][1]benzofuro[3,2-d]pyrimidin-4(3H)-one], the IC50 (on CDC7 (setting [2]); at CK2; in assay [1]) was below 10 µM in each case.
As for `O=c1[nH]c([C@@H]2C[C@H](O)CN2)nc2c1oc1ccc(Br)cc12` [Compound 511, 8-bromo-2-[(2S,4S)-4-hydroxypyrrolidin-2-yl][1]benzofuro[3,2-d]pyrimidin-4(3H)-one], the IC50 on CDC7 (setting [2]) is below 10 µM; at CDC7 (setting [3]) it was below 0.1 µM; on CK2, below 10 µM; in assay [1], below 10 µM.
For `O=c1[nH]c([C@@H]2CC(F)(F)CN2)nc2c1oc1ccc(Br)cc12` [Compound 512, 8-bromo-2-[(2S)-4,4-difluoropyrrolidin-2-yl][1]benzofuro[3,2-d]pyrimidin-4(3H)-one], the IC50 on CDC7 (setting [2]) is below 10 µM; on CDC7 (setting [3]), below 0.1 µM; on CK2, below 10 µM; in assay [1] it was below 10 µM.
Consider `O=c1[nH]c([C@@H]2C[C@H](F)CN2)nc2c1oc1ccc(Br)cc12` [Compound 513, 8-bromo-2-[(2S,4S)-4-fluoropyrrolidin-2-yl][1]benzofuro[3,2-d]pyrimidin-4(3H)-one], for which the IC50 on CDC7 (setting [2]) was below 10 µM; at CDC7 (setting [3]), below 0.1 µM; at CK2, below 10 µM; in assay [1], below 10 µM.
As for `O=c1[nH]c([C@@H]2C[C@@H](F)CN2)nc2c1oc1ccc(Br)cc12` [Compound 514, 8-bromo-2-[(2S,4R)-4-fluoropyrrolidin-2-yl][1]benzofuro[3,2-d]pyrimidin-4(3H)-one], the IC50 at CDC7 (setting [2]) was below 10 µM; on CDC7 (setting [3]) it was below 0.1 µM; on CK2 it was below 10 µM; in assay [1] it was below 10 µM.
As for `CC1(C)CC[C@@H](c2nc3c(oc4ccc(Br)cc43)c(=O)[nH]2)N1` [Compound 515, 8-bromo-2-[(2S)-5,5-dimethylpyrrolidin-2-yl][1]benzofuro[3,2-d]pyrimidin-4(3H)-one], the IC50 at CDC7 (setting [2]) was below 10 µM; at CDC7 (setting [3]), below 0.1 µM; on CK2, below 10 µM; in assay [1], below 10 µM.
Regarding `CNCc1nc2c(oc3ccc(Br)cc32)c(=O)[nH]1` [Compound 516, 8-bromo-2-[(methylamino)methyl][1]benzofuro[3,2-d]pyrimidin-4(3H)-one], the IC50 on CDC7 (setting [2]) is below 10 µM; at CDC7 (setting [3]), below 0.1 µM; on CK2 it was below 10 µM; in assay [1], below 10 µM.
For the compound `CN(C)Cc1nc2c(oc3ccc(Br)cc32)c(=O)[nH]1` [Compound 517, 8-bromo-2-[(dimethylamino)methyl][1]benzofuro[3,2-d]pyrimidin-4(3H)-one], the IC50 at CDC7 (setting [2]) was below 10 µM; on CDC7 (setting [3]) it was below 0.1 µM; on CK2, below 10 µM; in assay [1] it was below 10 µM.
Take `CCC(C)N(C)Cc1nc2c(oc3ccc(Br)cc32)c(=O)[nH]1` (stereo not shown) [Compound 518, 8-bromo-2-{[methyl(1-methylpropyl)amino]methyl}[1]benzofuro[3,2-d]pyrimidin-4(3H)-one]: the IC50 on CDC7 (setting [2]) is below 10 µM; at CDC7 (setting [3]), below 0.1 µM; at CK2, below 10 µM; in assay [1], below 10 µM.
For `CC[C@@H](C)NCc1nc2c(oc3ccc(Br)cc32)c(=O)[nH]1` [Compound 519, 8-bromo-2-({[(1R)-1-methylpropyl]amino}methyl)[1]benzofuro[3,2-d]pyrimidin-4(3H)-one], the IC50 at CDC7 (setting [2]) was below 10 µM; at CDC7 (setting [3]), below 0.1 µM; at CK2, below 10 µM; in assay [1] it was below 10 µM.
Consider `O=c1[nH]c(CN2CC3CCC2C3)nc2c1oc1ccc(Br)cc12` (stereo not shown) [Compound 520, 2-(2-azabicyclo[2.2.1]hept-2-ylmethyl)-8-bromo[1]benzofuro[3,2-d]pyrimidin-4(3H)-one], for which the IC50 at CDC7 (setting [4]) was below 10 µM; against CDC7 (setting [5]), below 0.1 µM; at CK2, below 10 µM; in assay [1], below 10 µM.
Take `O=c1[nH]c(CNC2CC2)nc2c1oc1ccc(Br)cc12` [Compound 521, 8-bromo-2-[(cyclopropylamino)methyl][1]benzofuro[3,2-d]pyrimidin-4(3H)-one]: the IC50 was below 10 µM at CDC7 (setting [2]), below 0.1 µM at CDC7 (setting [3]), below 10 µM at CK2 and below 10 µM in assay [1].
For `CC[C@H](C)NCc1nc2c(oc3ccc(Br)cc32)c(=O)[nH]1` [Compound 522, 8-bromo-2-({[(1S)-1-methylpropyl]amino}methyl)[1]benzofuro[3,2-d]pyrimidin-4(3H)-one], the IC50 at CDC7 (setting [2]) was below 10 µM; on CDC7 (setting [3]), below 0.1 µM; at CK2 it was below 10 µM; in assay [1], below 10 µM.
As to `O=C1CC[C@@H](c2nc3c(oc4ccc(Br)cc43)c(=O)[nH]2)N1` [Compound 523, 8-bromo-2-[(2S)-5-oxopyrrolidin-2-yl][1]benzofuro[3,2-d]pyrimidin-4(3H)-one], the IC50 at CDC7 (setting [2]) is below 10 µM; on CDC7 (setting [3]), below 0.1 µM; on CK2 it was below 10 µM; in assay [1], below 10 µM.
`O=c1[nH]c([C@@H]2C[C@@H](F)CN2)nc2c1oc1ccc(Cl)cc12` [Compound 526, 8-chloro-2-[(2S,4R)-4-fluoropyrrolidin-2-yl][1]benzofuro[3,2-d]pyrimidin-4(3H)-one]: the IC50 is below 10 µM on CDC7 (setting [2]), below 0.1 µM on CDC7 (setting [3]), below 10 µM at CK2 and below 10 µM in assay [1].
On to `CN1CCC[C@H]1c1nc2c(oc3ccc(Br)cc32)c(=O)[nH]1` [Compound 527, 8-Bromo-2-[(2S)-1-methylpyrrolidin-2-yl][1]benzofuro[3,2-d]pyrimidin-4(3H)-one hydrochloride], for which the concentration for half-maximal inhibition (IC50) at CDC7 (setting [2]) is below 10 µM; on CDC7 (setting [3]) it was below 0.1 µM; at CK2, below 10 µM; in assay [1] it was below 10 µM.
As to `O=c1[nH]c([C@@H]2C[C@H](O)CN2)nc2c1oc1ccc(Cl)cc12` [Compound 528, 8-chloro-2-[(2S,4S)-4-hydroxypyrrolidin-2-yl][1]benzofuro[3,2-d]pyrimidin-4(3H)-one], the IC50 on CDC7 (setting [2]) is below 10 µM; at CDC7 (setting [3]), below 0.1 µM; on CK2 it was below 10 µM; in assay [1] it was below 10 µM.
`O=c1[nH]c([C@@H]2CC3CCCCC3N2)nc2c1oc1ccc(Cl)cc12` (stereo partly drawn) [Compound 529, 8-chloro-2-[(2S)-octahydro-1H-indol-2-yl][1]benzofuro[3,2-d]pyrimidin-4(3H)-one]: the IC50 against CDC7 (setting [4]) is below 10 µM; at CDC7 (setting [5]) it was below 0.1 µM; on CK2, below 10 µM; in assay [1] it was below 10 µM.
As for `COc1ccc2oc3c(=O)[nH]c([C@@H]4CC(F)(F)CN4)nc3c2c1` [Compound 531, 2-[(2S)-4,4-difluoropyrrolidin-2-yl]-8-(methyloxy)[1]benzofuro[3,2-d]pyrimidin-4(3H)-one], the IC50 on CDC7 (setting [2]) is below 10 µM; on CDC7 (setting [3]) it was below 0.1 µM; on CK2 it was below 10 µM; in assay [1], below 10 µM.
